Measured values: patent US6693114B2, “4-oxo-1,4-dihydro[1,8]naphthyridine-3-carboxamides as antiviral agents” (Pharmacia & Upjohn Company, priority 2000, dated 2004)

Experiments:
HCMV polymerase = target: T1, HCMV polymerase (Human cytomegalovirus, UniProt P08546); assay: HCMV polymerase assay (scintillation proximity assay, modified version); format: biochemical; details: for IC50: modified HCMV polymerase SPA assay, compounds diluted in 100% DMSO, 4.5 mM DTT
T1 construct: made in house; host or cells: recombinant baculovirus-infected SF-9 cells
T1 sequence (P08546 whole entry): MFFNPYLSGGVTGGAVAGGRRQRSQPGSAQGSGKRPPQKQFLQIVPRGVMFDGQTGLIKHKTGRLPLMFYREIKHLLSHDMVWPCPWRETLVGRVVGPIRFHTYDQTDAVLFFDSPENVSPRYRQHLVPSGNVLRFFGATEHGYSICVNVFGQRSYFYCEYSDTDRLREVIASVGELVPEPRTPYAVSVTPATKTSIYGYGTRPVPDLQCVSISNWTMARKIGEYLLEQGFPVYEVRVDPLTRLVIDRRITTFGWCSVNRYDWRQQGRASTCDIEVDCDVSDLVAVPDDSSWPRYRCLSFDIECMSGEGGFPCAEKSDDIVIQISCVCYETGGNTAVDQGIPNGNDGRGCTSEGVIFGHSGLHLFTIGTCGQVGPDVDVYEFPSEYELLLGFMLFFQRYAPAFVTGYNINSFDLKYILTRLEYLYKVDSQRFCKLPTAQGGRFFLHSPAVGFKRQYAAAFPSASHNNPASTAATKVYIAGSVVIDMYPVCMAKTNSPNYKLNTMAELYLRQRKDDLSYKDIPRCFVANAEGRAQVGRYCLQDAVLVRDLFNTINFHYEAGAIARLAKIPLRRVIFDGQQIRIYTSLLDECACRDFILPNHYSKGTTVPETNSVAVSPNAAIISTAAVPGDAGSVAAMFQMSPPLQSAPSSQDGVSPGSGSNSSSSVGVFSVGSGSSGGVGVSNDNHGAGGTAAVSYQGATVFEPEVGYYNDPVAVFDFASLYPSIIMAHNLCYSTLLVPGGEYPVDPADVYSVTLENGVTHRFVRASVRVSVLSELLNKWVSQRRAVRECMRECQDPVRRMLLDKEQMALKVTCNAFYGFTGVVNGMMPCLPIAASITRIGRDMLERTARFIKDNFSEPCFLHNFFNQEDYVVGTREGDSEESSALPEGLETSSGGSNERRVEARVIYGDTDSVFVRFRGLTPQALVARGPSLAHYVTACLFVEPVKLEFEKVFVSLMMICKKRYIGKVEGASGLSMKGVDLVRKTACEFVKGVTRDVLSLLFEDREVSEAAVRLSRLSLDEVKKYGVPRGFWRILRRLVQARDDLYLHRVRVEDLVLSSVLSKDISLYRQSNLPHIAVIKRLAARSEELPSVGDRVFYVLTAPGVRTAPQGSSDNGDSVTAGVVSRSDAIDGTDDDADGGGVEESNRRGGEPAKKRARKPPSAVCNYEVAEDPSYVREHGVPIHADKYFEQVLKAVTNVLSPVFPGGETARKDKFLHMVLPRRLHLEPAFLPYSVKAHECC
Protocol: The HCMV polymerase assay is performed using a scintillation proximity assay (SPA) as described in several references, such as N. D. Cook, et al., Pharmaceutical Manufacturing International, pages 49-53 (1992); K. Takeuchi, Laboratory Practice, September issue (1992); U.S. Pat. No. 4,568,649 (1986); which are incorporated by reference herein. Reactions are performed in 96-well plates. The assay is conducted in 100 μl volume with 5.4 mM HEPES (pH 7.5), 11.7 mM KCl, 4.5 mM MgCl2, 0.36 mg/ml BSA, and 90 nM ^3H-dTTP. Assays are run with and without CHAPS, (3-[(3-cholamidopropyl)-dimethylammonio]-1-propane-sulfonate) at a final concentration of 2 mM. HCMV polymerase is diluted in enzyme dilution buffer containing 50% glycerol, 250 mM NaCl, 10 mM HEPES (pH 7.5), 100 μg/ml BSA, and 0.01% sodium azide. The HCMV polymerase, which is expressed in recombinant baculovirus-infected SF-9 cells and purified according to literature procedures, is added at 10% (or 10 μl) of the final reaction volume, i.e., 100 μl. Compounds are diluted in 50% DMSO and 10 μl are added to each well. Control wells contain an equivalent concentration of DMSO. Unless noted otherwise, reactions are initiated via the addition of 6 nM biotinylated poly(dA)-oligo(dT) template/primer to reaction mixtures containing the enzyme, substrate, and compounds of interest. Plates are incubated in a 25° C. or 37° C. H2O bath and terminated via the addition of 40 μl/reaction of 0.5 M EDTA (pH 8) per well. Reactions are terminated within the time-frame during which substrate incorporation is linear and varied depending upon the enzyme and conditions used, i.e., 30 min. for HCMV polymerase. Ten μl of streptavidin-SPA beads (20 mg/ml in PBS/10% glycerol) are added following termination of the reaction. Plates are incubated 10 min. at 37° C., then equilibrated to room temperature, and counted on a Packard Topcount. Linear regressions are performed and IC50's are calculated using computer software.
A modified version of the above HCMV polymerase assay is performed as described above, but with the following changes: Compounds are diluted in 100% DMSO until final dilution into assay buffer. In the previous assay, compounds are diluted in 50% DMSO. 4.5 mM dithiotherotol (DTT) is added to the polymerase buffer. […] All results are listed as Polymerase IC50 (μM) values. In Table 1, the term “nd” refers to activity data not determined.

HSV polymerase = HSV polymerase (Human herpesvirus 1, UniProt P04293); assay: HSV polymerase assay (Table 1, Polymerase IC50); format: biochemical; details: modified polymerase SPA assay
Sequence of HSV polymerase (P04293 whole entry): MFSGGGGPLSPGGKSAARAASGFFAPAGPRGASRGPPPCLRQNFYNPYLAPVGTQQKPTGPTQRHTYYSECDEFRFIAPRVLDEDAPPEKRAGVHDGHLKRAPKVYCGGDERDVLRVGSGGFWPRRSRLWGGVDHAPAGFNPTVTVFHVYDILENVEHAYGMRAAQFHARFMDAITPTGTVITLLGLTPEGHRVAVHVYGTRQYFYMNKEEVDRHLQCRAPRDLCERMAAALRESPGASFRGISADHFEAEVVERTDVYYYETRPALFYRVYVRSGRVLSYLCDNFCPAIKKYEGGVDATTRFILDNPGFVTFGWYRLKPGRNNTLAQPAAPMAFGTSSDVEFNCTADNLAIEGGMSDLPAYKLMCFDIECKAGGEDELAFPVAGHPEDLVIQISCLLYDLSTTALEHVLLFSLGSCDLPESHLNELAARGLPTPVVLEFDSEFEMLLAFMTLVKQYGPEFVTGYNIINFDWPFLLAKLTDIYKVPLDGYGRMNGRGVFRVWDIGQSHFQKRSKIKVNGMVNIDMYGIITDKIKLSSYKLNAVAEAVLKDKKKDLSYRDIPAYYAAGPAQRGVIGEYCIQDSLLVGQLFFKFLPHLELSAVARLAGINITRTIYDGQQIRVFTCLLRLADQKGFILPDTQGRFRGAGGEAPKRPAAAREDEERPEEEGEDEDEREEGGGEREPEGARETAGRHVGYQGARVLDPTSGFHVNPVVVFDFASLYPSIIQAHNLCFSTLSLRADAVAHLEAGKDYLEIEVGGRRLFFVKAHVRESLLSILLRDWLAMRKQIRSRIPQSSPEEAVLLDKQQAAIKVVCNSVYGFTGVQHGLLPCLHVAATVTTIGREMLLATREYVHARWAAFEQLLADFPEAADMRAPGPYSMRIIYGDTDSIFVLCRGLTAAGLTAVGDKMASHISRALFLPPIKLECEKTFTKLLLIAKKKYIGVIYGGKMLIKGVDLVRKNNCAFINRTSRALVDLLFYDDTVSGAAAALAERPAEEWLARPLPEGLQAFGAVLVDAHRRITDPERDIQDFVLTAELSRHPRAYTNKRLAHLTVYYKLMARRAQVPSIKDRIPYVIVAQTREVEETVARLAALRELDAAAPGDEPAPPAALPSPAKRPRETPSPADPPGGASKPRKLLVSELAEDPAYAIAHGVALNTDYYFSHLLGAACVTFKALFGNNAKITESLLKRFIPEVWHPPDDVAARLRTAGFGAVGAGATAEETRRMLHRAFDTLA

VZV polymerase = VZV polymerase (Varicella-zoster virus, UniProt P09252); assay: VZV polymerase assay (Table 1, Polymerase IC50); format: biochemical; details: modified polymerase SPA assay
Sequence of VZV polymerase (P09252 whole entry): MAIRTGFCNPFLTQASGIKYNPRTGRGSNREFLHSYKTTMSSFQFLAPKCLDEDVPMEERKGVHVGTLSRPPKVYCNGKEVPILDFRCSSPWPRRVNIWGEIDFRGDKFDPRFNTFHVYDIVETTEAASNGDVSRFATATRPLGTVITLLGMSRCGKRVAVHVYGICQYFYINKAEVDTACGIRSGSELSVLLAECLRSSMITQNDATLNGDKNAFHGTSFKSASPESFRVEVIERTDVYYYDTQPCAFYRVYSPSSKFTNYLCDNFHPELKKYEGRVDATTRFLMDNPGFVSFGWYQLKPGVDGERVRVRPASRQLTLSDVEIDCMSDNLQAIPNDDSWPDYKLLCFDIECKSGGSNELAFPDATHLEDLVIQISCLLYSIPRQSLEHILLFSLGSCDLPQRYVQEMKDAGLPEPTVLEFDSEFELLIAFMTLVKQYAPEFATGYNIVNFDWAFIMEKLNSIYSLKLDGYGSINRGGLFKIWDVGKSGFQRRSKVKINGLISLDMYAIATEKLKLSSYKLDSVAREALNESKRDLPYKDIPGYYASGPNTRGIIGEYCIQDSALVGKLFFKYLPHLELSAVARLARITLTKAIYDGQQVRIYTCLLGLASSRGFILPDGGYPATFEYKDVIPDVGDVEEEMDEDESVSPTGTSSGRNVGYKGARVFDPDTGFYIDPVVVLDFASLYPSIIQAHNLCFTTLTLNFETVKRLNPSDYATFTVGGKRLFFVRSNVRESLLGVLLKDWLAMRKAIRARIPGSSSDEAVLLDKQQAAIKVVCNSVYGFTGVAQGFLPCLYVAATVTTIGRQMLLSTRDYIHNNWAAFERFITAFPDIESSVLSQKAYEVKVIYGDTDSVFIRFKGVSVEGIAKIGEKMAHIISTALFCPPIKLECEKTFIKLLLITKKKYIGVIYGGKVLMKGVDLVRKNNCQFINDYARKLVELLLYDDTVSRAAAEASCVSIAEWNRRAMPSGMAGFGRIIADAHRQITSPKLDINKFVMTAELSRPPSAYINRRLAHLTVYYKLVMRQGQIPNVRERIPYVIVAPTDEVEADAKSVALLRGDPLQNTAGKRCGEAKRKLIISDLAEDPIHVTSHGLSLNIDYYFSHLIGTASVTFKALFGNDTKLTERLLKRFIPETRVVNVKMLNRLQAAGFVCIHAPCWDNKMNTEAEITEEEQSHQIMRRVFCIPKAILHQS

SMILES	IC50 (HCMV polymerase) [nM]	melting point [°C]	inhibition at 20 µM (HCMV polymerase; at 20 μM) [%]	IC50 (HSV polymerase) [nM]	IC50 (VZV polymerase) [nM]
COc1nc2c(cc1CCCO)c(=O)c(C(=O)NCc1ccc(Cl)cc1)cn2C [Example 7, N-(4-Chlorobenzyl)-6-(3-hydroxypropyl)-7-methoxy-1-methyl-4-oxo-1,4-dihydro[1,8]naphthyridine-3-carboxamide]	460				
COc1nc2c(cc1C#CCO)c(=O)c(C(=O)NCc1ccc(Cl)cc1)cn2C [Example 6, N-(4-chlorobenzyl)-6-(3-hydroxy-1-propynyl)-7-methoxy-1-methyl-4-oxo-1,4-dihydro[1,8]naphthyridine-3-carboxamide]	1170				
Cc1nc2c(cc1Br)c(=O)c(C(=O)NCc1ccc(Cl)cc1)cn2C [Example 1, 6-bromo-N-(4-chlorobenzyl)-1,7-dimethyl-4-oxo-1,4-dihydro[1,8]naphthyridine-3-carboxamide]		266 to 268			
COc1nc2c(cc1I)c(=O)c(C(=O)NCc1ccc(Cl)cc1)cn2C [Example 4, N-(4-Chlorobenzyl)-6-iodo-7-methoxy-1-methyl-4-oxo-1,4-dihydro[1,8]naphthyridine-3-carboxamide]	22300				
Cn1cc(C(=O)NCc2ccc(Cl)cc2)c(=O)c2ccc(=O)[nH]c21 [Example 5, N-(4-Chlorobenzyl)-1-methyl-4,7-dioxo-1,4,7,8-tetrahydro[1,8]naphthyridine-3-carboxamide]	17100				
CCOC(=O)c1cc2c(=O)c(C(=O)NCc3ccc(Cl)cc3)cn(C)c2nc1OC [Example 8, Ethyl 6-{[(4-chlorobenzyl)amino]carbonyl}-2-methoxy-8-methyl-5-oxo-5,8-dihydro[1,8]naphthyridine-3-carboxylate]			37		
Cc1nc2c(cc1CCCO)c(=O)c(C(=O)NCc1ccc(Cl)cc1)cn2C [Example 3, N-(4-chlorobenzyl)-6-(3-hydroxypropyl)-1,7-dimethyl-4-oxo-1,4-dihydro[1,8]naphthyridine-3-carboxamide]	2700	176 to 177		2400	1400
Cc1nc2c(cc1C#CCO)c(=O)c(C(=O)NCc1ccc(Cl)cc1)cn2C [Example 2, N-(4-chlorobenzyl)-6-(3-hydroxy-1-propynyl)-1,7-dimethyl-4-oxo-1,4-dihydro[1,8]naphthyridine-3-carboxamide]	1800	217 to 218		1900	1100
